Measured values as given in US20230277483A1, “COMPOSITIONS AND METHODS TO TREAT INFLAMMATION” (University of Iowa Research Foundation, priority 2022, published 2023).

What was measured:
[1] = tested on: C57BL/6J mice; assay: Pg-LPS gingival injection mouse model of periodontal inflammation; type: in vivo; settings: 100 μl of HCA at 0.5 μM I.P. three times a week, 3 weeks
[2] = tested on: human gingival fibroblasts (HGF); assay: Proinflammatory cytokines after Pg-LPS challenge (qRT-PCR, ELISA, antibody array); type: cell-based
Protocol: Sg metabolites modulate proinflammatory cytokines in human periodontal associated cells in vitro. Sg were cultured in a total of 40 ml DMEM for 24 hrs. After 200 μl of Sg suspension reached 0.2 at OD600 value in a 96-well plate, the Sg metabolites were collected by centrifugation at 3000 g for 10 min and then filtered through a 0.22 μm filter. No toxicity of Sg metabolites was detected using an MTT assay on primary human bone marrow mesenchymal stromal cells (BMSCs) and primary human gingival fibroblasts (HGF) (data no shown). The modulation of Sg metabolites on inflammatory cytokines was tested using human monocyte-derived macrophages (MDM) and HGF. The MDM were generated by inducing a human macrophage cell line (THP-1) using PMA at 10 ng/ml. The MDM at 2×10^6 cells/per well and HGF at 2×10^4 cells/per well were cultured in 24-well plates using DMEM with 10% FBS and 1% PS. The Sg metabolites at 1 and 5% v/v were added and incubated for 24 hrs before challenging with Pg-LPS at 100 ng/ml.
L-Norleucine as well as other metabolites modulate proinflammatory cytokines in macrophages and HGF. L-Norleucine was obtained commercially (Sigma) and dissolved in DMEM. Mouse macrophages and human HGF were cultured with DMEM supplemented with different concentrations of L-Norleucine and subsequently challenged with Pg-LPS at 100 ng/ml.
Human monocyte-derived macrophages (MDM) using THP-1 cells and HGF were cultured in a 24-well plate with DMEM and challenged with Pg-LPS at 100 ng/ml.
In addition, freshly isolated epidydimal white adipose tissues (eWAT) from mice on a HFD for 16 weeks were minced and cultured in 24-well plates and treated with HCA at 0.5 and 1.0 μM in DMEM/F-12 containing 10% cosmic calf serum (CCS) and 1% penicillin-streptomycin (basal growth media, BGM). […] These preliminary data are strong evidence that Sg metabolites have the potential to modulate host inflammatory responses and attenuate inflammation.
HCA promotes proliferation of health related bacteria and inhibits proliferation and attachment of periodontopathogenic bacteria. Promoting the growth of health-related commensal bacteria while inhibiting proliferation and attachment of pathogenic bacteria may be effective at preventing or treating periodontal inflammation. To determine if HCA has an effect on the growth properties of commensal bacteria and periodontopathogens, HCA at different concentrations was added to aerobic culture of S. mitis and S. oralis and anaerobic culture of T. denticola as described in our published manuscript (see detail in Shu et al, Journal of Periodontology, 2022). FIGS. 18A-C summarize the functions of HCA on the proliferation of specific commensal and pathogenic bacteria. […] Furthermore, the function of HCA on P. gingivalis attachment, a key parameter of adhesion and biofilm formation by periodontopathogenic bacteria, was investigated. […] Attachment measurements of P. gingivalis were performed based on our published studies (see detail in Shu et al, Journal of Periodontology, 2022). […] To test the biocompatibility and anti-inflammatory properties of HCA, human monocyte-derived macrophages (MDM) and gingival fibroblasts (HGF) were prepared as described in our previous studies. The cells were then treated with HCA from 0.1 to 50 μM. No toxicity was observed after treatment with different concentrations of HCA in either cell type using an MTT assay (FIGS. 19A and B, left column). The anti-inflammatory function of HCA on MDM and HGF after exposure to P. gingivalis lipopolysaccharide (PG-LPS) was investigated. […] HCA mitigates inflammation and affects the composition of microbiomes in vivo. Recent studies investigated whether HCA modulates periodontal inflammation using a mouse model. To induce periodontal inflammation, a total of 1 μl Pg-LPS at 10 μg/μl was directly injected twice a week into the interdental region between maxillary molars of C57BL/6J mice using a Hamilton1700 series syringe according to our previously published studies. […]

Structure (SMILES): O=C(O)CCCCCO [HCA, 6-hydroxycaproic acid]
- serum IL-1β production (ELISA) [1]: significantly reduced
- gingival IL-1β expression (qRT-PCR) ([1]; Pg-LPS twice a week): suppressing gingival IL-1β expression
- transcripts of IL-1β, IL-6, and IL-8 ([2]; HCA at 0.1 μM, 6 hours following PG-LPS challenge at 0.1 μg/mL): significantly downregulated
- protein levels of IL-6 and IL-8 ([2]; HCA at 0.1 μM, HGF lysate, after 24 hrs): significantly reduced
- transcripts of IL-1β, 6, and 8 ([2]; HCA at 0.1 and 1.0 μM, Pg-LPS at 100 ng/ml, after 6 hrs): significantly downregulated
- proinflammatory cytokines (transcripts of IL-1β, 6 and 8) ([2]; at 0.1 μg after Pg-LPS challenge): modulate
